According to patent US20250281629A1, “COMPOSITIONS AND METHODS FOR ANTI-PHOSPHOCHOLINE ACTIVE IMMUNOTHERAPY” (Duke University, priority 2022, published 2025):
Where no end group is shown, it is not given here.

Tested on: ZO-1
Test: Immunofluorescence of colon tight junction protein ZO-1
Type: in vivo, mouse
Conditions: week 5; vs PBS control mice
Experimental: Immunofluorescence Imaging and Analysis. Immunofluorescence was conducted on sections from proximal colon samples frozen in OCT and sectioned. Slides were first thawed and outlined with a hydrophobic pen (ImmEdge Hydrophobic Barrier PAP Pen, Vector Labs, H-4000) then fixed with 4% paraformaldehyde for 10 min at room temperature. The slides were washed three times with wash buffer (1×PBS+100 mM CaCl2+100 mM MgCl) for 10 min at room temperature then incubated in a blocking solution containing 0.3% Triton X-100 and 10% normal donkey serum in 1×PBS+100 mM CaCl2+100 mM MgCl for 1 h at room temperature. The slides were then incubated in the primary antibodies (rat anti-ZO-1, clone R40.70, Fisher Scientific, MABT11; rabbit anti-occludin, clone EPR20992, Abcam, ab216327) diluted 1:100 in the blocking solution overnight at 4° C. The slides were washed three times with wash buffer for 10 min at room temperature. They were then incubated in the secondary antibodies (donkey anti-rat Alexa Fluor™ 568, Thermo Fisher, A78946; donkey anti-rabbit Alexa Fluor™ 647, Thermo Fisher, A31573) and nuclear marker DAPI diluted 1:500 in the blocking solution for 2 h at room temperature. […] The intensities of each marker were quantified using ImageJ and expressed as the integrated density of the fluorescent signal normalized to the area fraction of DAPI positive pixels. […]

Substance: (C11H22NO6P)n-CCCCSGSG-QQKFQFQFEQQ-NH2 (CCCCSGSGQQKFQFQFEQQ-NH2; not fully specified; cysteine pairing not given here; also: phosphorylcholine groups (C11H22NO6P) n=1-4, attachment not placed) [PCM-Q11, linear multi-PC conjugate]
- ZO-1 levels in colon after immunization: not significantly different
